Data: US20230143751A1, “Aromatic Compound And Use Thereof In Preparing Antineoplastic Drugs” (Shanghai Zheye Biotechnology Co. Ltd., priority 2020, published 2023)

Experiments:
NCI-H358 = test: Cell proliferation inhibitory activity on NCI-H358, 3D model test (agarose colony formation); assay type: cell-based
Description: 100 μl of agarose gel with a high concentration was spread in a 96-well plate as the bottom agarose gel layer. Agarose with a low concentration and growth medium containing cells were mixed and then spread on the bottom agar layer, cooled and solidified, then incubated overnight at 37° C. Mother solutions were prepared from the test compounds by using DMSO, and then subjected to gradient elution with RPMI 1640 growth medium. The solutions of test compounds with different concentrations after gradient elution were added to the 96-well plate comprising an upper layer of agar gel-cells. Solvent control well was set up and the plate was incubated in a CO2 incubator. The drug-containing medium was changed during the incubation period and the cell growth situation was observed. After the incubation, the cells were stained with NBT and the number of cell colony formation was counted, and the IC50 values of the compounds inhibiting cell proliferation were derived.

[1] = Preliminary safety test, 5-day escalating oral dosing in Balb/c mice; assay type: in vivo
Description: Test samples: Compound 3-2, Compound 3-6, Compound 3-12M, Compound 3-20, and Compound 4-8.
Animal species and number: Balb/c; 6 animals per group (half male and half female).
(§1) Administration mode: oral administration by gavage.
Animal grouping and administration dose: vehicle blank group, Compound 3-2 group (200 mg/kg, 400 mg/kg, 800 mg/kg), Compound 3-6 group (200 mg/kg, 400 mg/kg, 800 mg/kg), Compound 3-12M group (200 mg/kg, 400 mg/kg, 800 mg/kg), Compound 3-20 group (200 mg/kg, 400 mg/kg, 800 mg/kg), Compound 4-8 group (200 mg/kg, 400 mg/kg, 800 mg/kg).
Administration frequency: once a day for 5 days.
General clinical observations were performed 2 times a day (once in the morning and once in the afternoon) during the test period. Death, morbidity, respiration, secretions, feces, and diet, drinking situation and so on were observed, and the changes in body weight of the mice during the administration period were recorded. The animals in each group were euthanized after the administration, and all animals were dissected and subjected to gross observation.

[2] = test system: MIA PaCa-2-derived xenograft tumor; test: Pharmacodynamic effect study of MIA PaCa-2-derived xenograft tumor model (test 11); assay type: in vivo, nude mice; conditions: MIA PaCa-2 xenograft, 20 mg/kg i.g. QD×21 days
Description: Animal species and number: Balb/c Nude; 6 animals per group.
Test samples: Compound 3-2, and Compound TM-1.
Test groups: blank solvent control group;
Compound 3-2 (20 mg/kg, i.g., QD×21 days);
Compound TM-1 (20 mg/kg, i.g., QD×21 days).
Animal model establishment: MIA PaCa-2 tumor cells in logarithmic growth phase were cultured in vitro and collected, and inoculated subcutaneously into the right back of nude mice at a quantity of 5×10^6 cells/each. When the tumor volume reached 150-300 mm^3, the tumor-bearing nude mice were randomly grouped. Subsequently, the animals in each group were administered, and the day of the first administration was defined as day 1 of the test.
Administration frequency: once a day.
General state observation: observation time and frequency: once a day; observation indexes or contents: including but not limited to administration location, appearance and signs, general behavioral activities, mental status, death and other abnormal performance of the animals. The animals were euthanized at the end of the test.
Tumor volume calculation: V=½×long diameter×short diameter^2 (mm^3).

NCI-H358 cells = test: Cell proliferation activity of NCI-H358 by CellTiter-Glo reagent; assay type: cell-based; conditions: Homo sapiens, NCI-H358; test 8, method of test 3; read-out: IC50 of proliferation inhibitory activity of the compound on NCI-H358 cell line
Method in brief: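 NCI-H358 cells seeded at 2000–3000 per well and grown overnight at 37° C, 5% CO2 before compound exposure. Viability read by CellTiter-Glo luminescence; IC50 from curve fitting.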

[3] = Acute toxicity test, single oral dose in SD rats; assay type: in vivo; conditions: SD rats, single oral gavage, 500, 1000, 2000 mg/kg
Description: Test samples: Compound 3-2, and Compound 3-6.
Animal species and number: SD rat; 6 animals per group (half male and half female).
as §1
Animal grouping and administration dose: vehicle blank group, Compound 3-2 group (500 mg/kg, 1000 mg/kg, 2000 mg/kg), Compound 3-6 group (500 mg/kg, 1000 mg/kg, 2000 mg/kg).
Administration frequency: once.
Death, morbidity, respiration, secretions, feces, and diet, drinking situation and so on were observed, and the changes in body weight of the rats during the administration period were recorded. The contents of detailed clinical observation included but were not limited to behavioral activity, skin, coat, eyes, ears, nose, abdomen, external genitalia, anus, extremities, feet, and respiration. The animals in each group were euthanized at the end of observation period, and all animals were dissected and subjected to gross observation.

[4] = test system: NCI-H358-derived xenograft tumor; test: Pharmacodynamics study of NCI-H358-derived xenograft tumor model, combination with Afatinib or Trametinib (test 10); assay type: in vivo, nude mice; conditions: i.g. QD×21 days, 3-2 10 mg/kg, Afatinib 10 mg/kg, Trametinib 0.1 mg/kg
Description: Animal species and number: Balb/c Nude; 6 animals per group. Test samples: […] Test groups: blank solvent control group; […] NCI-H358 tumor cells in logarithmic growth phase were cultured in vitro and collected, and inoculated subcutaneously into the right back of nude mice at a quantity of 5×10^6 cells/each. When the tumor volume reached 150-300 mm^3, the tumor-bearing nude mice were randomly grouped. Subsequently, the animals in each group were administered, and the day of the first administration was defined as day 1 of the test. Administration frequency: once a day. General state observation: observation time and frequency: once a day; observation indexes or contents: including but not limited to administration location, appearance and signs, general behavioral activities, mental status, death and other abnormal performance of the animals. The animals were euthanized at the end of the test. Tumor volume calculation: V=½×long diameter×short diameter^2 (mm^3).

With `C=CC(=O)N1CCN(c2nc(=O)n(-c3c(C)ccnc3C(C)C)c3nc(-c4ccccc4C=C)c(Cl)cc23)[C@@H](C)C1` [Compound 3-2] the “anti-cell proliferation activity against KRAS G12C mutant type cells NCI-H358 (in words)” value (NCI-H358; 3D model test) was “significant anti-cell proliferation activity”, the IC50 (NCI-H358; Homo sapiens, NCI-H358, 3D agarose colony formation, NBT staining) was less than 0.05 µM and the MTD at 5 days ([1]; both sexes, mouse, in vivo, oral gavage, 5 days, initially suggested, read-out: maximum tolerated dose) was greater than 800 mg/kg. The “water and food intake, activity and body weight during the administration period (in words)” value ([1]; oral gavage once a day for 5 days, 200 to 800 mg/kg) was “no significant abnormality was showed”, the “Tumor inhibition rate (%)” value [2] was “+++ (“+++” represents a tumor inhibition rate of >140%)” and the IC50 (NCI-H358 cells) was 0.01 µM. The “death or morbidity after single dose (in words)” value [3] was “No animals in each group were dead or close to death”, the MTD ([3]; both sexes, rat, in vivo, read-out: maximum tolerated dose (MTD)) was no less than 2000 mg/kg and the “Tumor inhibition rate (%)” value [4] was “++ (“++” represents a tumor inhibition rate of 130%˜200%)”.
